{"source": "patent US4540700A", "about": "“Treatment of diabetic complications with certain spiro-imidazolidine-diones” (Alcon Laboratories, Inc., priority 1984, dated 1985)", "test_system": "cataracts in rats", "experiment": "prevention or retardation of cataracts in rats fed 30% galactose diet (compound in chow)", "format": "in vivo, rat", "conditions": "for inhibition of cataract development: 4 and 8 Mg/Kg/day; for condition of rat eyes: 4 and 8 Mg/Kg/day in 30% galactose chow, 32 days", "text": "The compounds were formulated in ground Purina Rodent Laboratory Chow, Number 5001, containing 30% galactose.\nEighty-four rats were divided into the following seven groups (six treated groups having different compound intake levels and an untreated galactose control) having different compound intake levels as shown in Table IV.\nThe galactose control group (twelve rats, twenty-four eyes) were fed ground Purina Rodent Laboratory Chow, No. 5001 containing 30% by weight galactose. The six test compound groups (twelve rats, twenty-four eyes per group) were fed the same 30% galactose chow except that the chow was formulated to deliver […] of the indicated test compound (see Table IV).\nIt is known that young male rats fed a 30% galactose diet (As previously described) will develop lenticular changes within several days which predicatively progress in time irreversibly to cataracts. Aldose reductase inhibitor compounds which are in vivo active will delay or prevent galactose induced cataractogenesis. In this in vivo experiment, the test aldose reductase inhibitor compounds were formulated in the 30% galactose feed to evaluate their in vivo anticataract activity."}
{"smiles": "O=C1NC(=O)C2(N1)c1ccccc1-c1ccc(F)cc12", "note": "(racemic) [Compound L, dl-Spiro(2-fluorofluoren-9,4'-imidazolidine)-2',5'-dione]", "values": [{"measurement": "inhibition of cataract development", "result": "inhibit cataract development"}, {"measurement": "condition of rat eyes", "result": "asymptomatic"}]}
{"smiles": "O=C1NC(=O)C2(CCOc3ccc(F)cc32)N1", "note": "(racemic) [Sarges Racemic, dl-spiro-(6-fluorochroman-4,4'-imidazolidine)-2',5'-dione, reference compound]", "values": [{"measurement": "Times to Cataract, Mean", "setting": "4 Mg/Kg/day", "result": 15.68, "unit": "days"}, {"measurement": "average time to snowflake-like opacities", "setting": "4 Mg/Kg/day", "result": 15.7, "unit": "days"}, {"measurement": "condition of rat eyes", "result": "developed snowflake-like opacities"}, {"measurement": "time to cataract, days less than at 8 Mg/Kg/day", "setting": "4 vs 8 Mg/Kg/day, average", "result": 4, "unit": "days"}, {"measurement": "Times to Cataract, Mean", "setting": "8 Mg/Kg/day", "result": 19.68, "unit": "days"}, {"measurement": "average time to snowflake-like opacities", "setting": "8 Mg/Kg/day", "result": 19.7, "unit": "days"}]}
{"smiles": "O=C1NC(=O)C2(N1)c1cc(F)ccc1-c1ccc(F)cc12", "note": "[M, Spiro-[2,7-difluorofluoren-9,4'-imidazolidine]-2',5'-dione]", "values": [{"measurement": "inhibition of cataract development", "result": "inhibit cataract development"}, {"measurement": "condition of rat eyes", "result": "asymptomatic"}]}
